Measured values: ChEMBL document CHEMBL1275550, “In vitro activity of doripenem, a carbapenem for the treatment of challenging infections caused by gram-negative bacteria, against recent clinical isolates from the United States” (2008)

Columns and labels:
Assay type in all cases: functional
[1] = system: Escherichia coli; assay: Antimicrobial activity against Non-ESBL Escherichia coli assessed as resistant isolate by broth microdilution method
[2] = system: Proteus mirabilis; assay: Antimicrobial activity against ESBL producing Proteus mirabilis assessed as resistant isolate by broth microdilution method
[3] = system: Enterobacter cloacae; assay: Antimicrobial activity against Enterobacter cloacae with derepressed AmpC beta-lactamsae assessed as resistant isolate by broth microdilution method
[4] = system: Serratia marcescens; assay: Antimicrobial activity against Ceftazidime non-susceptible Serratia marcescens assessed as resistant isolate by broth microdilution method
[5] = system: Citrobacter; assay: Antimicrobial activity against Citrobacter assessed as resistant isolate by broth microdilution method
[6] = system: Klebsiella pneumoniae; assay: Antimicrobial activity against Klebsiella pneumoniae assessed as resistant isolate by broth microdilution method
[7] = system: Enterobacteriaceae; assay: Antimicrobial activity against ceftazidime non-susceptible Enterobacteriaceae by broth microdilution method in presence of Tazobactam
[8] = system: Enterobacteriaceae; assay: Antimicrobial activity against ceftazidime-susceptible Enterobacteriaceae assessed as intermediate isolate by broth microdilution method in presence of Tazobactam
[9] = system: Enterobacteriaceae; assay: Antimicrobial activity against Ceftazidime non-susceptible Enterobacteriaceae assessed as intermediate isolate by broth microdilution method in presence of tazobactam
[10] = system: Escherichia coli; assay: Antimicrobial activity against Non-ESBL Escherichia coli by broth microdilution method in presence of Tazobactam
[11] = system: Escherichia coli; assay: Antimicrobial activity against Non-ESBL Escherichia coli assessed as susceptible isolate by broth microdilution method in presence of Tazobactam
[12] = system: Escherichia coli; assay: Antimicrobial activity against Non-ESBL Escherichia coli assessed as intermediate isolate by broth microdilution method in presence of Tazobactam
[13] = system: Escherichia coli; assay: Antimicrobial activity against ESBL producing Escherichia coli assessed as resistant isolate by broth microdilution method in presence of Tazobactam
[14] = system: Klebsiella pneumoniae; assay: Antimicrobial activity against Non-ESBL Klebsiella pneumoniae by broth microdilution method in presence of Tazobactam
[15] = system: Klebsiella pneumoniae; assay: Antimicrobial activity against Non-ESBL Klebsiella pneumoniae assessed as resistant isolate by broth microdilution method in presence of Tazobactam
[16] = system: Klebsiella pneumoniae; assay: Antimicrobial activity against ESBL producing Klebsiella pneumoniae assessed as susceptible isolate by broth microdilution method in presence of Tazobactam
[17] = system: Klebsiella pneumoniae; assay: Antimicrobial activity against ESBL producing Klebsiella pneumoniae assessed as intermediate isolate by broth microdilution method in presence of Tazobactam
[18] = system: Pseudomonas aeruginosa; assay: Antimicrobial activity against Pseudomonas aeruginosa isolated from ICU patient assessed as intermediate isolate by broth microdilution method
[19] = system: Pseudomonas aeruginosa; assay: Antimicrobial activity against Pseudomonas aeruginosa isolated from non-ICU patient assessed as intermediate isolate by broth microdilution method in presence of Tazobactam
[20] = system: Pseudomonas aeruginosa; assay: Antimicrobial activity against Pseudomonas aeruginosa isolated from ICU patient assessed as susceptible isolate by broth microdilution method in presence of Tazobactam
[21] = system: Proteus mirabilis; assay: Antimicrobial activity against Non-ESBL Proteus mirabilis by broth microdilution method in presence of Tazobactam
[22] = system: Proteus mirabilis; assay: Antimicrobial activity against ESBL producing Proteus mirabilis by broth microdilution method in presence of Tazobactam
[23] = system: Proteus mirabilis; assay: Antimicrobial activity against ESBL producing Proteus mirabilis assessed as susceptible isolate by broth microdilution method in presence of Tazobactam
[24] = system: Proteus mirabilis; assay: Antimicrobial activity against ESBL producing Proteus mirabilis assessed as intermediate isolate by broth microdilution method in presence of Tazobactam
[25] = system: Enterobacter cloacae; assay: Antimicrobial activity against Enterobacter cloacae with derepressed AmpC beta-lactamsae by broth microdilution method in presence of Tazobactam
[26] = system: Enterobacter cloacae; assay: Antimicrobial activity against Enterobacter cloacae with nonderepressed AmpC beta-lactamsae assessed as intermediate isolate by broth microdilution method in presence of Tazobactam
[27] = system: Enterobacter cloacae; assay: Antimicrobial activity against Enterobacter cloacae with nonderepressed AmpC beta-lactamsae assessed as resistant isolate by broth microdilution method in presence of Tazobactam
[28] = system: Enterobacter cloacae; assay: Antimicrobial activity against Enterobacter cloacae with derepressed AmpC beta-lactamsae assessed as susceptible isolate by broth microdilution method in presence of Tazobactam
[29] = system: Enterobacter cloacae; assay: Antimicrobial activity against Enterobacter cloacae with derepressed AmpC beta-lactamsae assessed as intermediate isolate by broth microdilution method in presence of Tazobactam
[30] = system: Enterobacter cloacae; assay: Antimicrobial activity against Enterobacter cloacae with derepressed AmpC beta-lactamsae assessed as resistant isolate by broth microdilution method in presence of Tazobactam
[31] = system: Citrobacter; assay: Antimicrobial activity against Citrobacter with nonderepressed AmpC beta-lactamsae assessed as intermediate isolate by broth microdilution method in presence of Tazobactam
[32] = system: Citrobacter; assay: Antimicrobial activity against Citrobacter with nonderepressed AmpC beta-lactamsae assessed as resistant isolate by broth microdilution method in presence of Tazobactam
[33] = system: Citrobacter; assay: Antimicrobial activity against Citrobacter with derepressed AmpC beta-lactamsae assessed as susceptible isolate by broth microdilution method in presence of Tazobactam
[34] = system: Citrobacter; assay: Antimicrobial activity against Citrobacter with derepressed AmpC beta-lactamsae assessed as resistant isolate by broth microdilution method in presence of Tazobactam
[35] = system: Serratia marcescens; assay: Antimicrobial activity against ceftazidime susceptible Serratia marcescens by broth microdilution method in presence of Tazobactam
[36] = system: Serratia marcescens; assay: Antimicrobial activity against Ceftazidime non-susceptible Serratia marcescens by broth microdilution method in presence of tazobactam
[37] = system: Serratia marcescens; assay: Antimicrobial activity against ceftazidime non-susceptible Serratia marcescens assessed as susceptible isolate by broth microdilution method in presence of Tazobactam
[38] = system: Serratia marcescens; assay: Antimicrobial activity against Ceftazidime non-susceptible Serratia marcescens assessed as intermediate isolate by broth microdilution method in presence of tazobactam
[39] = system: Pseudomonas aeruginosa; assay: Antimicrobial activity against ceftazidime non-susceptible Pseudomonas aeruginosa by broth microdilution method in presence of Tazobactam
[40] = system: Pseudomonas aeruginosa; assay: Antimicrobial activity against imipenem susceptible Pseudomonas aeruginosa by broth microdilution method in presence of Tazobactam
[41] = system: Pseudomonas aeruginosa; assay: Antimicrobial activity against imipenem non-susceptible Pseudomonas aeruginosa by broth microdilution method in presence of Tazobactam
[42] = system: Pseudomonas aeruginosa; assay: Antimicrobial activity against imipenem susceptible Pseudomonas aeruginosa assessed as susceptible isolate by broth microdilution method in presence of Tazobactam
[43] = system: Pseudomonas aeruginosa; assay: Antimicrobial activity against imipenem susceptible Pseudomonas aeruginosa assessed as intermediate isolate by broth microdilution method in presence of Tazobactam
[44] = system: Pseudomonas aeruginosa; assay: Antimicrobial activity against imipenem susceptible Pseudomonas aeruginosa assessed as resistant isolate by broth microdilution method in presence of Tazobactam
[45] = system: Pseudomonas aeruginosa; assay: Antimicrobial activity against imipenem non-susceptible Pseudomonas aeruginosa assessed as susceptible isolate by broth microdilution method in presence of Tazobactam
[46] = system: Pseudomonas aeruginosa; assay: Antimicrobial activity against imipenem non-susceptible Pseudomonas aeruginosa assessed as intermediate isolate by broth microdilution method in presence of Tazobactam
[47] = system: Acinetobacter; assay: Antimicrobial activity against imipenem susceptible Acinetobacter assessed as intermediate isolate by broth microdilution method in presence of Tazobactam

CC(C)(O/N=C(\C(=O)N[C@@H]1C(=O)N2C(C(=O)[O-])=C(C[n+]3ccccc3)CS[C@H]12)c1csc(N)n1)C(=O)O [CEFTAZIDIME]
Activity [1]: 0.9%
Activity [2]: 0%
Activity [3]: 97.1%
Activity [4]: 100%

C[C@@H](O)[C@H]1C(=O)N2C(C(=O)O)=C(SCCNC=N)C[C@H]12 [IMIPENEM ANHYDROUS]
Activity [5]: 0.2%

C[C@@H](O)[C@H]1C(=O)N2C(C(=O)O)=C(S[C@@H]3CN[C@H](C(=O)N(C)C)C3)[C@H](C)[C@H]12 [MEROPENEM]
Activity [6]: 0.3%

CCN1CCN(C(=O)N[C@@H](C(=O)N[C@@H]2C(=O)N3[C@@H]2SC(C)(C)[C@@H]3C(=O)O)c2ccccc2)C(=O)C1=O [PIPERACILLIN]
MIC50 [7]: 128 µg/mL
MIC90 [7]: > 128 µg/mL
Activity [8]: 2.3%
Activity [9]: 20.6%
MIC50 [10]: 4 µg/mL
MIC90 [10]: 8 µg/mL
Activity [11]: 93.6%
Activity [12]: 3.2%
Activity [13]: 30%
MIC50 [14]: 4 µg/mL
MIC90 [14]: 16 µg/mL
Activity [15]: 1.7%
Activity [16]: 11.4%
Activity [17]: 11.4%
MIC50 [18]: 16 µg/mL
MIC90 [18]: > 128 µg/mL
Activity [19]: 0%
Activity [20]: 78.4%
MIC50 [21]: 0.5 µg/mL
MIC90 [21]: 2 µg/mL
MIC [22]: 0.5 µg/mL
Activity [23]: 100%
Activity [24]: 0%
MIC50 [25]: > 128 µg/mL
MIC90 [25]: > 128 µg/mL
Activity [26]: 3.2%
Activity [27]: 3.5%
Activity [28]: 5.8%
Activity [29]: 11.7%
Activity [30]: 82.5%
Activity [31]: 3.7%
Activity [32]: 2.6%
Activity [33]: 3.6%
Activity [34]: 67.3%
MIC50 [35]: 4 µg/mL
MIC90 [35]: 16 µg/mL
MIC50 [36]: 64 µg/mL
MIC90 [36]: > 128 µg/mL
Activity [37]: 20%
Activity [38]: 30%
MIC50 [39]: > 128 µg/mL
MIC90 [39]: > 128 µg/mL
MIC50 [40]: 16 µg/mL
MIC90 [40]: 64 µg/mL
MIC50 [41]: 16 µg/mL
MIC90 [41]: > 128 µg/mL
Activity [42]: 90.6%
Activity [43]: 0%
Activity [44]: 9.4%
Activity [45]: 72.9%
Activity [46]: 0%
Activity [47]: 18.1%
